The record followed here is patent US20220133679A1, “EFFLUX INHIBITOR COMPOSITIONS AND METHODS OF TREATMENT USING THE SAME” (Izumi Technology, LLC, priority 2012, published 2022).

One data set is described as follows: in vitro. It counts as in vitro ADME. To be noted: dog, MDCK. The protocol:
(§1) An in vitro permeability assay using the MDCK cell line was performed to investigate the ability of elacridar to cross cellular membranes. […] Specifically, non-transduced MDCK cells, expressing only basal amounts of endogenous ABC-transporters, were seeded in the apical compartments of a 24 mm Transwell plate (3.0 μm Pore Polycarbonate Membrane Inserts) and incubated at 37° C. and 5.0% CO2 conditions until confluency was reached. Both apical-to-basolateral and basolateral-to-apical transport was analyzed in triplicate. To each donor compartment, 2 ml of Minimal Essential Medium (supplemented with 20% Fetal Bovine Serum) containing 1 μM elacridar and 50 nCi/ml (1.85 kBq/ml)^14C-inulin was added, while each acceptor compartment was filled with 2 ml blank Minimal Essential Medium (supplemented with 20% Fetal Bovine Serum). Samples of 100 μl were taken from each acceptor compartment at t=5 min, 30 min, 1 h, 2 h and 4 h as well as from all donor solutions for HPLC-MS/MS analysis of elacridar.
(§2) Samples for HPLC-MS/MS analysis were prepared as follows. Samples (50 μl) were pipetted into a 2 ml eppendorf vial and the internal standard (IS) solution (1 μM of elacridar-d4) in Minimal Essential Medium (supplemented with 20% Fetal Bovine Serum) and 1 ml of diethyl ether were added. […] An aliquot of 75 μl was subjected to HPLC-MS/MS using the conditions and set-up as described above for elacridar.
(§3) Leakage of the transwell membrane, as indicated by ^14C-inulin accumulation in the acceptor compartment, was analyzed in 10 μl samples from all time points as well as donor solutions. To each sample, 3 ml of Ultima Gold solution was added and vials were mixed thoroughly prior to radioactivity analysis using a Liquid Scintillation Counter.

The test system of another data set is MDCK cell monolayer. In words: in vitro. To be noted: dog, 1 μM. It counts as in vitro ADME. On the procedure:
as §1, §2, §3

Details of data set [1]: species or system female Sprague-Dawley rats. The conditions noted are these: rat, in vivo. The protocol:
Studies were conducted in female Sprague-Dawley rats. […] The selected 100 mg/kg dose is well above the level where nonlinear pharmacokinetics have been documented. Ten animals were used at weekly intervals between each dosing to allow washout of the drug from the previous dosing.
Elacridar suspension formulation was prepared by weighing 100.03 mg of elacridar, which was first suspended in 5 ml of water, followed by 5 ml of vehicle solution (2.5% w/v of hydroxypropyl methyl cellulose (HPMC) and 2% v/v of Tween 80). This suspension was stirred for about 2.5 hours prior to dosing. The final concentration was 10 mg/ml. This suspension was given at 10 μl per gram body weight to achieve a dose level of 100 mg/kg
Elacridar nanoparticle (NP) suspensions were used as received, except for a final 5-fold dilution step to obtain a NP suspension of 10 mg/ml of elacridar.
There were three study groups: 1) Elacridar Suspension (n=4); 2) Elacridar TPGS nanoparticles (n=5); and 3) Elacridar Poloxamer nanoparticles (n=5). All animals received elacridar orally by gavage under light isoflurane anesthesia. The animals were fasted for a period of 3 h before drug administration. Food pellets were returned to the cages after the 4 h sampling point. Blood samples from the tail vein at: 15, 30 min, 1, 2, 4, 7, 24, 30 and 48 hours. Samples were kept on ice and centrifuged within 2 h to separate plasma. Plasma was stored at −20° C.
Formulation for i.v. administration was prepared by weighing 61.12 mg of elacridar and dissolving this in 2.056 ml of DMSO. The final concentration was 30 mg/ml. Animals (n=4) received […] per gram body weight (5 mg/kg). Blood samples were taken from the tail vein at: 5, 15, 30 min, 1, 2, 4, 7, 24, 30 and 48 h. Samples were kept on ice and centrifuged within 2 h to separate plasma. Plasma was stored at −20° C.
Samples were pre-treated as follows. […] 1000 μl of diethyl ether was added.

As usually defined, the Papp A→B is the apparent permeability from the apical to the basolateral side of a cell layer. Low readings indicate poor permeation, high ones ready permeation. As usually defined, the Papp B→A is the apparent permeability from the basolateral to the apical side of a cell layer. By AUC(0-inf) is commonly meant total exposure, with the tail of the curve extrapolated. By Cmax is commonly meant the highest concentration seen after dosing. For orientation: Tmax means the time from dosing to the highest level.

In the data set “in vitro”, `COc1cc2c(cc1OC)CN(CCc1ccc(NC(=O)c3cccc4c(=O)c5cccc(OC)c5[nH]c34)cc1)CC2` [elacridar] yielded a Papp A→B at 4 h, 1 μM of 11.2 ×10⁻⁶ cm/s and a Papp B→A at 4 h, 1 μM of 10.9 ×10⁻⁶ cm/s. Moreover, the “amount of elacridar at the receptor side relative to drug content at the donor side” value in the data set with MDCK cell monolayer is “about 6%”. Besides, the tolerability of dosing entry in data set [1] (100 mg/kg) is “tolerated these doses of elacridar without any problem”.
With DMSO, in data set [1] (iv, 5 mg/kg), the “AUC(0-48 h)” value came out at 260.3 µg·min/mL, the “AUC(0-inf)” value stood at 272.2 µg·min/mL, the Cmax came to 826.5 ng/mL and the F amounted to 100.0%. Further, in data set [1] (iv, 5 mg/kg), the time of peak concentration (Tmax) is listed as 0 h and the T½ is listed as 6.9 h.
